Assay results as given in patent US8623879B2, “1-heterocyclyl-1,5-dihydro-pyrazolo[3,4-D] pyrimidin-4-one derivates and their use as PDE9A modulators” (Boehringer Ingelheim International GmbH, priority 2008, dated 2014).

How the values were obtained:
human PDE9A = human PDE9A (Homo sapiens, UniProt O76083); conditions: concentrations of up to 100 micromolar; cited from earlier work
human PDE9A2 = target: T1, human PDE9A2 (Homo sapiens, UniProt O76083); assay: PDE9A2 enzymatic activity assay (scintillation proximity assay, SPA); type: biochemical; conditions: for inhibition at 10 µM: read-out: % inhibition of PDE9A2 (at 10 micromolar concentration), 10 micromolar concentration; for inhibition at 10 µM / % inhibition of PDE9A2 (at 10 micromolar concentration): values above 100% adjusted to 100%; for IC50: reported only as range 1-100 or 101-1200 nanomolar, specific value lies within range, read-out: IC50 within range [nanomolar (nM)]
T1 construct: made in house; host or cells: Sf9 insect cells (infected); crude lysate used as enzyme source
T1 sequence (O76083 1-533 isoform O76083-2): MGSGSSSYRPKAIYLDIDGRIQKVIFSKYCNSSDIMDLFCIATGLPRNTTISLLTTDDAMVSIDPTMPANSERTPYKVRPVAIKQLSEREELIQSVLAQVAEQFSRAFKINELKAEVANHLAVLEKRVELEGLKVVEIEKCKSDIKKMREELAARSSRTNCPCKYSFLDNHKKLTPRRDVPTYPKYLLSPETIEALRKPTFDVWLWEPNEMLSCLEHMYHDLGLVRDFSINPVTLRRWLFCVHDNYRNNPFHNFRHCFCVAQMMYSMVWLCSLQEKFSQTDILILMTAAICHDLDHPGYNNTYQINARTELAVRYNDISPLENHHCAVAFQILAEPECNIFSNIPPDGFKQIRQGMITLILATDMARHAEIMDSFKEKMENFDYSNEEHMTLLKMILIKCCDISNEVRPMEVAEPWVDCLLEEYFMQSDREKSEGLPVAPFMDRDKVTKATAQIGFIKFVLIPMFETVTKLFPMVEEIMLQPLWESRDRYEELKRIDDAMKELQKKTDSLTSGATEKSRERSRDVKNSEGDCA

Sequence of human PDE9A (O76083 whole entry): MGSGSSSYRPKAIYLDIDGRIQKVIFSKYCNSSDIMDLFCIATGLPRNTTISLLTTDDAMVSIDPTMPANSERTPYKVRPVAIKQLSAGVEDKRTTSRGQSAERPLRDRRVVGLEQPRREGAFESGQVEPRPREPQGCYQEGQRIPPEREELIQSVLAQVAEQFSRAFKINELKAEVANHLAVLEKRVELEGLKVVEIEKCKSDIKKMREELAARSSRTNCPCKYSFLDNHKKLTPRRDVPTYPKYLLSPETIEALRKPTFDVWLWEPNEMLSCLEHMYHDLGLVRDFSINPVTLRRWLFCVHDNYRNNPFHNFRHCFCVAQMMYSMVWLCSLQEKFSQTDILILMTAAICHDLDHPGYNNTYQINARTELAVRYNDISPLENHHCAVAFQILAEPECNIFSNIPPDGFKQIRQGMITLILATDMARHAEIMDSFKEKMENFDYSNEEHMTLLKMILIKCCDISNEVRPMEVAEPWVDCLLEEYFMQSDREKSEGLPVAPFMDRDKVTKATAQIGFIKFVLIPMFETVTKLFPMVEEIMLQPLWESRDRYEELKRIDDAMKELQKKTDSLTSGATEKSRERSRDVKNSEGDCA

SMILES | inhibition on the isolated enzyme (human PDE9A) | inhibition at 10 µM (human PDE9A2) [%] | IC50 (human PDE9A2) [nM] | % inhibition of PDE9A2 (at 10 micromolar concentration) (human PDE9A2) [%]
CCOC(=O)C1=C[C@]2(CC)CCCN3CCc4c(n1c1ccccc41)[C@@H]32 [vinpocetine] | no inhibition |  |  | 
COc1ccc(C2CNC(=O)C2)cc1OC1CCCC1 (stereo not shown) [rolipram] | no inhibition |  |  | 
CC(=O)N1CCC(n2ncc3c(=O)[nH]c(Cc4ccccc4)nc32)C1 (racemic) [Example 172] |  | 100 | 1 to 100 | 
CC(C)Cc1nc2c(cnn2C2CCCN(C(=O)OC(C)(C)C)C2)c(=O)[nH]1 (racemic) [Example 31] |  | 98 | 1 to 100 | 
CN1CCC(n2ncc3c(=O)[nH]c(Cc4ccccc4OC(F)(F)F)nc32)CC1 [Example 150] |  | 90 | 101 to 1200 | 
COc1ccc(Cc2nc3c(cnn3C3CCOCC3)c(=O)[nH]2)cc1F [Example 27] |  | 99 | 1 to 100 | 
O=c1[nH]c(Cc2ccccc2Br)nc2c1cnn2C1CCOCC1 [Example 5] |  | 99 | 1 to 100 | 
Cc1cc(C)cc(Cc2nc3c(cnn3C3CCOCC3)c(=O)[nH]2)c1 [Example 36] |  | 100 | 1 to 100 | 
CC(C)(C)OC(=O)N1CCCC(n2ncc3c(=O)[nH]c(Cc4ccccc4OC(F)(F)F)nc32)C1 (racemic) [Example 19] |  | 99 | 1 to 100 | 
CN(C)C(=O)N1CCC(n2ncc3c(=O)[nH]c(Cc4ccccc4)nc32)C1 (racemic) [Example 190] |  | 82 | 101 to 1200 | 
O=c1[nH]c(Cc2ccccn2)nc2c1cnn2C1CCCOC1 (racemic) [Example 94] |  | 96 | 101 to 1200 | 
COC(=O)N1CCCC(n2ncc3c(=O)[nH]c(CC4CCCC4)nc32)C1 (racemic) [Example 154] |  | 100 | 1 to 100 | 
CC(C)(C)OC(=O)N1CCC(n2ncc3c(=O)[nH]c(Cc4ccccc4)nc32)C1 (racemic) [Example 15] |  | 92 | 101 to 1200 | 
CN(C)C(=O)N1CCCC(n2ncc3c(=O)[nH]c(CC4CCCC4)nc32)C1 (racemic) [Example 160] |  | 96 | 1 to 100 | 
CCCc1nc2c(cnn2C2CCOCC2)c(=O)[nH]1 [Example 29] |  | 96 | 1 to 100 | 
O=c1[nH]c(Cc2ccccc2OC2CCOCC2)nc2c1cnn2C1CCOCC1 [Example 60] |  | 97 | 1 to 100 | 
CC(=O)N1CCCC(n2ncc3c(=O)[nH]c(Cc4cccc(C(F)(F)F)c4)nc32)C1 (racemic) [Example 184] |  | 97 | 1 to 100 | 
O=c1[nH]c(Cc2cc(OC(F)(F)F)ccc2F)nc2c1cnn2C1CCOCC1 [Example 50] |  | 97 | 1 to 100 | 
CC(=O)N1CCC(n2ncc3c(=O)[nH]c(Cc4ccccc4OC(F)(F)F)nc32)CC1 [Example 153] |  | 90 | 101 to 1200 | 
O=c1[nH]c(CC2CCC2)nc2c1cnn2C1CCCN(CC(F)(F)F)C1 (racemic) [Example 192] |  | 100 | 101 to 1200 | 
O=c1[nH]c(Cc2c(F)cccc2Cl)nc2c1cnn2C1CCOCC1 [Example 6] |  | 98 | 1 to 100 | 

SMILES | inhibition on the isolated enzyme (human PDE9A) | inhibition at 10 µM (human PDE9A2) [%] | IC50 (human PDE9A2) [nM] | % inhibition of PDE9A2 (at 10 micromolar concentration) (human PDE9A2) [%]
O=C(c1ccccc1)N1CCCC(n2ncc3c(=O)[nH]c(CC4CCC4)nc32)C1 (racemic) [Example 181] |  | 96 | 1 to 100 | 
O=c1[nH]c(CC2CCC2)nc2c1cnn2C1CCCNC1 (racemic) [Example 206] |  | 82 | 101 to 1200 | 
O=c1[nH]c(CC2CC2)nc2c1cnn2C1CCS(=O)(=O)CC1 [Example 237] |  | 89 | 101 to 1200 | 
CCOc1ccccc1Cc1nc2c(cnn2C2CCCOC2)c(=O)[nH]1 (racemic) [Example 93] |  | 97 | 1 to 100 | 
CCC(CC)Cc1nc2c(cnn2C2CCOCC2)c(=O)[nH]1 [Example 133, 6-(2-Ethyl-butyl)-1-(tetrahydro-pyran-4-yl)-1,5-dihydro-pyrazolo[3,4-d]pyrimidin-4-one] |  | 98 | 1 to 100 | 
O=c1[nH]c(CC2CCC(F)(F)CC2)nc2c1cnn2C1CCOCC1 [Example 40-6] |  | 97 | 1 to 100 | 
CCC(C)Cc1nc2c(cnn2C2CCOCC2)c(=O)[nH]1 (racemic) [Example 135] |  | 98 | 1 to 100 | 
COc1ccccc1Cc1nc2c(cnn2C2CCN(C(C)=O)C2)c(=O)[nH]1 (racemic) [Example 168] |  | 90 | 101 to 1200 | 
O=c1[nH]c(CC2CCCCC2)nc2c1cnn2C1CCCOC1 (racemic) [Example 103] |  | 99 | 1 to 100 | 
O=C(c1ccccc1)N1CCCC(n2ncc3c(=O)[nH]c(CC4CCCC4)nc32)C1 (racemic) [Example 183] |  | 99 | 1 to 100 | 
CCCCc1nc2c(cnn2C2CCOCC2)c(=O)[nH]1 [Example 8] |  | 100 | 1 to 100 | 
O=c1[nH]c(CCC2CCCC2)nc2c1cnn2C1CCOCC1 [Example 9] |  | 99 | 1 to 100 | 
O=c1[nH]c(CC2CCCO2)nc2c1cnn2C1CCOCC1 (racemic) [Example 42] |  | 92 | 101 to 1200 | 
O=c1[nH]c(CC2CCC2)nc2c1cnn2C1CCOCC1 [Example 43] |  | 98 | 1 to 100 | 
CC(=O)N1CCC(n2ncc3c(=O)[nH]c(Cc4ccccc4)nc32)CC1 [Example 152] |  | 93 | 101 to 1200 | 
O=c1[nH]c(Cc2ccccn2)nc2c1cnn2C1CCOC1 (racemic) [Example 124] |  | 95 | 101 to 1200 | 
CC[C@H](C)Cc1nc2c(cnn2C2CCOCC2)c(=O)[nH]1 [Example 128] |  | 99 | 1 to 100 | 
CN1CCCC(n2ncc3c(=O)[nH]c(Cc4ccccc4F)nc32)C1 (racemic) [Example 217] |  | 97 | 101 to 1200 | 
CN1CCCC(n2ncc3c(=O)[nH]c(Cc4cccc(C(F)(F)F)c4)nc32)C1 (racemic) [Example 216] |  | 96 | 1 to 100 | 
O=c1[nH]c(Cc2ccccn2)nc2c1cnn2C1CCOC1 (single isomer, unassigned) [Example 132-7] |  | 94 | 1 to 100 | 
CC(C)Cc1nc2c(cnn2C2CCOCC2)c(=O)[nH]1 [Example 143] |  | 100 | 1 to 100 | 

SMILES | inhibition on the isolated enzyme (human PDE9A) | inhibition at 10 µM (human PDE9A2) [%] | IC50 (human PDE9A2) [nM] | % inhibition of PDE9A2 (at 10 micromolar concentration) (human PDE9A2) [%]
O=c1[nH]c(Cc2cccc(F)c2)nc2c1cnn2C1CCOCC1 [Example 139] |  | 99 | 1 to 100 | 
CCOc1ccccc1Cc1nc2c(cnn2C2CCCN(C(=O)OC(C)(C)C)C2)c(=O)[nH]1 (racemic) [Example 30] |  | 100 | 1 to 100 | 
CN1CCC(n2ncc3c(=O)[nH]c(CC4CCC4)nc32)C1 (racemic) [Example 214] |  | 98 | 1 to 100 | 
CC(Cc1nc2c(cnn2C2CCOCC2)c(=O)[nH]1)C(F)(F)F (racemic) [Example 46] |  | 100 | 1 to 100 | 
CCc1cc(OC)ccc1Cc1nc2c(cnn2C2CCOCC2)c(=O)[nH]1 [Example 235] |  | 98 | 101 to 1200 | 
CC1CC(n2ncc3c(=O)[nH]c(Cc4ccccc4C(F)(F)F)nc32)CCO1 (racemic) [Example 116] |  |  | 101 to 1200 | 93
O=c1[nH]c(Cc2ccccc2C(F)(F)F)nc2c1cnn2C1CCCCO1 (racemic) [Example 147-1] |  | 86 | 101 to 1200 | 
CN1CCCC(n2ncc3c(=O)[nH]c(Cc4ccccc4)nc32)C1 (racemic) [Example 215] |  | 93 | 101 to 1200 | 
CC1(C)CC(n2ncc3c(=O)[nH]c(CC4CCCC4)nc32)CCO1 (racemic) [Example 104] |  | 95 | 101 to 1200 | 
O=c1[nH]c(Cc2ccccc2)nc2c1cnn2C1CCNCC1 [Example 202] |  | 83 | 101 to 1200 | 
CCOc1ccccc1Cc1nc2c(cnn2C2CCCN(C(C)=O)C2)c(=O)[nH]1 (racemic) [Example 179] |  | 91 | 101 to 1200 | 
O=C(c1ccccc1)N1CCCC(n2ncc3c(=O)[nH]c(Cc4ccccn4)nc32)C1 (racemic) [Example 175] |  | 88 | 101 to 1200 | 
N#Cc1cccc(Cc2nc3c(cnn3C3CCOC3)c(=O)[nH]2)c1 (racemic) [Example 89] |  | 95 | 101 to 1200 | 
O=c1[nH]c(CC2CC2)nc2c1cnn2C1CC[S+]([O-])CC1 (stereo not shown) [Example 236] |  | 93 | 101 to 1200 | 
CN1CCCC(n2ncc3c(=O)[nH]c(CC4CCC4)nc32)C1 (racemic) [Example 218] |  | 88 | 101 to 1200 | 
CC(C)Cc1nc2c(cnn2C2CCCCO2)c(=O)[nH]1 (racemic) [Example 146] |  | 91 | 101 to 1200 | 
CCOc1ccccc1Cc1nc2c(cnn2C2CCCN(C(=O)c3ccccc3)C2)c(=O)[nH]1 (racemic) [Example 178] |  | 92 | 101 to 1200 | 
O=c1[nH]c(CC2CCC2)nc2c1cnn2C1CCOC1 (racemic) [Example 73] |  | 97 | 1 to 100 | 
CC(=O)N1CCCC(n2ncc3c(=O)[nH]c(CC4CCCC4)nc32)C1 (racemic) [Example 157] |  | 97 | 1 to 100 | 
CC(C)Cc1nc2c(cnn2C2CCOC(C)C2)c(=O)[nH]1 (racemic) [Example 114] |  | 89 | 101 to 1200 | 
CC(Cc1nc2c(cnn2C2CCOCC2)c(=O)[nH]1)C(F)(F)F (single isomer, unassigned) [Example 132] |  |  | 101 to 1200 | 90
